Experimental data reported in patent US20230091888A1, “HERBICIDE COMBINATIONS COMPRISING GLUFOSINATE AND SELECTED PPO INHIBITORS” (BASF SE, priority 2020, published 2023).

What was measured:
Test in all cases: Greenhouse post-emergence weed control, percent injury vs untreated control
Type in all cases: in vivo
Conditions in all cases: 19 DAT
[1] = tested on: Ambrosia artemisiifolia (AMBEL)
Hordeum vulgare (HORVS) = tested on: Hordeum vulgare (HORVS)
[2] = tested on: Amaranthus Palmeri (AMAPA)
[3] = tested on: Amaranthus tuberculatus (AMATU)
[4] = tested on: Echinochloa crus-galli (ECHCG)
Galium aparine (GALAP) = tested on: Galium aparine (GALAP)

`C#CCN(C)c1c(C#N)cnn1-c1nn2c(c1Cl)CCCC2` [Pyraclonil] was tested, and the “Solo pyraclonil (1.5625 g ai/ha) % activity” value ([1]; 1.5625 g ai/ha) was 25%, the “Solo Pyraclonil (6.25 g ai/ha) % activity” value ([1]; 6.25 g ai/ha) was 65% and the “Solo pyraclonil (3.125 g ai/ha) % activity” value (Hordeum vulgare (HORVS); 3.125 g ai/ha) was 0%. The “Solo pyraclonil (3.125 g ai/ha) % activity” value ([2]; 3.125 g ai/ha) was 30%, the “Solo Pyraclonil (6.25 g ai/ha) % activity” value ([2]; 6.25 g ai/ha) was 20% and the “Solo pyraclonil (1.5625 g ai/ha) % activity” value ([3]; 1.5625 g ai/ha) was 20%. For the same compound, the “Solo Pyraclonil (6.25 g ai/ha) % activity” value ([3]; 6.25 g ai/ha) was 35%.

With Oxadiargyl the “Solo Oxadiargyl (3.125 g ai/ha) % activity” value ([1]; 3.125 g ai/ha) was 20%, the “Solo Oxadiargyl (6.25 g ai/ha) % activity” value ([1]; 6.25 g ai/ha) was 10% and the “Solo Oxadiargyl (3.125 g ai/ha) % activity” value ([4]; 3.125 g ai/ha) was 15%. For the same compound, the “Solo Oxadiargyl (3.125 g ai/ha) % activity” value ([2]; 3.125 g ai/ha) was 40%, the “Solo Oxadiargyl (6.25 g ai/ha) % activity” value ([2]; 6.25 g ai/ha) was 30% and the “Solo Oxadiargyl (6.25 g ai/ha) % activity” value ([3]; 6.25 g ai/ha) was 40%.

For `N#Cc1cnn(-c2nn3c(c2Cl)CCCC3)c1NCC1CC1` [cyclopyranyl, cyclopyranil], the “Solo cyclopyranyl (6.25 g ai/ha) % activity” value (Galium aparine (GALAP); 6.25 g ai/ha) was 65%, the “Solo cyclopyranyl (6.25 g ai/ha) % activity” value (Hordeum vulgare (HORVS); 6.25 g ai/ha) was 15% and the “Solo cyclopyranyl (6.25 g ai/ha) % activity” value ([4]; 6.25 g ai/ha) was 25%. The “Solo cyclopyranyl (1.5625 g ai/ha) % activity” value ([2]; 1.5625 g ai/ha) was 10%, the “Solo cyclopyranyl (3.125 g ai/ha) % activity” value ([2]; 3.125 g ai/ha) was 10% and the “Solo cyclopyranyl (6.25 g ai/ha) % activity” value ([2]; 6.25 g ai/ha) was 25%. The “Solo cyclopyranyl (6.25 g ai/ha) % activity” value ([3]; 6.25 g ai/ha) was 65%.

`CP(=O)(O)CCC(N)C(=O)O` (racemic) [Glufosinate, (2RS)-2-amino-4-[hydroxy(methyl)phosphinoyl]butyric acid] showed an inhibition at 50 g/ha (Galium aparine (GALAP); Galium aparine, 456 h, 50 g ai/ha, read-out: Solo Glufosinate (50 g ai/ha) % activity) of 30%, an inhibition at 50 g/ha ([1]; Ambrosia artemisiifolia, 456 h, 50 g ai/ha, read-out: Solo Glufosinate (50 g ai/ha) % activity) of 40% and an inhibition at 100 g/ha (Hordeum vulgare (HORVS); Hordeum vulgare, 456 h, 100 g ai/ha, read-out: Solo Glufosinate (100 g ai/ha) % activity) of 0%. It also gave an inhibition at 200 g/ha (Hordeum vulgare (HORVS); Hordeum vulgare, 456 h, 200 g ai/ha, read-out: Solo Glufosinate (200 g ai/ha) % activity) of 30%, an inhibition at 50 g/ha ([4]; Echinochloa crus-galli, 456 h, 50 g ai/ha, read-out: Solo Glufosinate (50 g ai/ha) % activity) of 10% and an inhibition at 100 g/ha ([4]; Echinochloa crus-galli, 456 h, 100 g ai/ha, read-out: Solo Glufosinate (100 g ai/ha) % activity) of 25%. It also gave an inhibition at 200 g/ha ([4]; Echinochloa crus-galli, 456 h, 200 g ai/ha, read-out: Solo Glufosinate (200 g ai/ha) % activity) of 70%, an inhibition at 50 g/ha ([2]; Amaranthus palmeri, 456 h, 50 g ai/ha, read-out: Solo Glufosinate (50 g ai/ha) % activity) of 35% and an inhibition at 100 g/ha ([2]; Amaranthus palmeri, 456 h, 100 g ai/ha, read-out: Solo Glufosinate (100 g ai/ha) % activity) of 30%. For the same compound, the inhibition at 200 g/ha ([2]; Amaranthus palmeri, 456 h, 200 g ai/ha, read-out: Solo Glufosinate (200 g ai/ha) % activity) was 80%, the inhibition at 50 g/ha ([3]; Amaranthus tuberculatus, 456 h, 50 g ai/ha, read-out: Solo Glufosinate (50 g ai/ha) % activity) was 40% and the inhibition at 100 g/ha ([3]; Amaranthus tuberculatus, 456 h, 100 g ai/ha, read-out: Solo Glufosinate (100 g ai/ha) % activity) was 70%. It also gave an inhibition at 200 g/ha ([3]; Amaranthus tuberculatus, 456 h, 200 g ai/ha, read-out: Solo Glufosinate (200 g ai/ha) % activity) of 90%.
